Test results as given in patent publication US10076522B2, “Systems and methods for treating bacterial infection” (priority 2016, dated 2018).

Assay: Phase III REVIVE-1 study, safety (adverse events)
Procedure: All subjects who received any study drug were evaluated for safety on the basis of medical history and physical examinations, reports of clinical AEs, routine electrocardiography, and clinically significant findings from routine liver function tests, serum chemistry, hematology, coagulation, and urinalysis (UA) tests. All adverse events were recorded throughout the study period, up to and including the LFU phone call. While blinded to treatment assignment, the investigator categorized the severity of each AE and the potential for relationship to study drug. Serious AEs (SAEs) include those that were life threatening, led to prolongation of the existing hospitalization, a congenital anomaly/birth defect, or caused persistent or significant disability, incapacity, or death. Treatment-emergent AEs (TEAEs) were defined as those that start or worsen in severity during or after the first dose of study drug administration through end of study.
Safety evaluation included incidence of TEAEs, laboratory test results (including liver function tests), vital signs, ECG results, and physical examination findings. All summaries of safety data was based on the safety population (all treated subjects).
The AE summary tables included subject (patient) counts. Therefore, if a subject experienced more than one episode of a particular AE, the subject was counted only once for that event. If a subject had more than one AE that was coded to the same preferred term, the subject was counted only once for that preferred term. Similarly, if a subject had more than one AE within a SOC, the subject was counted only once in that SOC.

Which “Deaths, number of subjects” value (REVIVE-1 safety population) does the source give for `COc1cc(Cc2cnc(N)nc2N)c2c(c1OC)OC(C1CC1)C=C2` (racemic) [Iclaprim] here?
The value was 0.

What about the “Deaths, percent of subjects” value (REVIVE-1 safety population) of the same molecule?
Its value is 0.0%.

And the “Study drug related TEAEs, number of subjects” value (human, in vivo)?
Its value is 57.

What about the “Study drug related TEAEs, percent of subjects” value (human, in vivo) of the same molecule?
The value was 19.5%.

What about the “TEAE-related SAEs (Serious AEs), number of subjects” value (human, in vivo) of the same molecule?
The value was 8.

And the “TEAE-related SAEs (Serious AEs), percent of subjects” value (human, in vivo)?
The value was 2.7%.

And the “TEAEs (Treatment Emergent Adverse Events), number of subjects” value (human, in vivo)?
Its value is 151.

What about the “TEAEs (Treatment Emergent Adverse Events), percent of subjects” value (human, in vivo) of the same molecule?
Its value is 51.5%.

What about the “TEAEs leading to discontinuation of study drug, number of subjects” value (human, in vivo) of the same molecule?
The value was 8.

What about the “TEAEs leading to discontinuation of study drug, percent of subjects” value (human, in vivo) of the same molecule?
The value was 2.7%.
